Patent US20240358693A1, “METHODS OF TREATING PAIN” (Aisa Pharma, Inc., priority 2023, published 2024)

Experiments:
[1] = oral dosing; cited from earlier work
[2] = In vitro equilibrium dialysis (RED) protein binding, rat brain homogenate; assay type: in vitro ADME; conditions: male, Sprague-Dawley, rat, pH 7.4
Protocol: (§1) Cilnidipine was tested by PsychoGenics using standard methodology in 96-well RED (Rapid Equilibrium Dialysis) plates from Thermo Fisher Scientific. Male Sprague-Dawley plasma and brain were obtained from BioIVT to provide the required protein matrix. Plasma was used undiluted, and brain homogenate was diluted 3 to 1 with PBS, pH 7.4. The protein matrix was spiked with the test compound dissolved in DMSO to achieve a 10 μM solution. Three chambers were used to allow for triplicate measures with a final DMSO concentration of <1% in each. The dialysate compartments of the 96-well dialysis chamber was loaded with PBS, pH 7.4 and the sample side was loaded with equal volume of the spiked protein matrix. The dialysis plate was then sealed and incubated at 37° C. for 4 h. After the incubation, samples were taken from each compartment. The buffer side was diluted with the appropriate matrix (plasma or brain homogenate) and the protein matrix side diluted with phosphate buffer. Resultant samples were then crashed in acetonitrile, centrifuged and the supernatant mixed with an aqueous solution providing samples for UPLC-MS/MS analysis. […] This control sample served as the basis for the determination of recovery. […] Samples were analyzed by UPLC-MS/MS using […] (MRM). The UPLC conditions consisted of a binary LC pump with autosampler, an InertSustain column (C18 column, 2.1×50 mm), utilizing gradient elution. The peak areas of the test compound in the buffer and test samples were used to calculate percent binding and recovery according to the following formulas: […]
(§2) The recovery determination serves as an indicator of reliability of the calculated protein binding value.
(§3) The characterization of protein binding is defined using the following ranges:
(§4) • Low 0 to 50% • Moderate 50 to 90% • High 90 to 99% • Very High>99%

[3] = tested on: rat brain homogenate proteins; assay: as above; assay type: in vitro ADME
Protocol: as §1, §2, §3, §4

[4] = tested on: participants with SSc-RP; assay: Summary of data: dose response / overall response, Phase 2a study Part A; assay type: in vivo, human; conditions: 20 mg dose group
Source text: Table S provides a summary of data:

[5] = tested on: plasma protein; conditions: oral; cited from earlier work
[6] = tested on: rat plasma proteins; assay: In vitro equilibrium dialysis (RED) protein binding, rat plasma; assay type: in vitro ADME
Protocol: as §1, §2, §3, §4

[7] = as above; assay type: in vitro ADME; conditions: male, Sprague-Dawley, pH 7.4
Protocol: as §1, §2, §3, §4

[8] = 10 mg Cilnidipine, Healthy Volunteers, single oral dose; cited from earlier work
[9] = target: Nav 1.7 sodium channel (Homo sapiens, UniProt Q15858); conditions: 20 mg dose of cilnidipine; cited from earlier work
[10] = tested on: participants with SSc-RP; assay: Pain score recorded during weekly RP attacks (11-point Likert scale); assay type: in vivo, human; conditions: for Average Pain Score [Mean (SD)]: on treatment, N = 24
Source text: The absolute change in average pain score (11-point Likert scale) of weekly RP attacks from baseline to the end of each Dosing Period will be a secondary outcome variable. The sponsor-developed participant-informed diary will be used to record data. The average pain score of weekly RP attacks is defined as the total pain scores divided by total number of RP attacks within the last 7 days of each dosing period. Average of the last 7 days of screening assessments will be used as baseline for the analysis of all periods. The variable will be calculated similar to frequency data as before.

[11] = male, Sprague-Dawley, plasma, 4 h, 10 μM, pH 7.4

Sequence of Nav 1.7 sodium channel (Q15858 whole entry): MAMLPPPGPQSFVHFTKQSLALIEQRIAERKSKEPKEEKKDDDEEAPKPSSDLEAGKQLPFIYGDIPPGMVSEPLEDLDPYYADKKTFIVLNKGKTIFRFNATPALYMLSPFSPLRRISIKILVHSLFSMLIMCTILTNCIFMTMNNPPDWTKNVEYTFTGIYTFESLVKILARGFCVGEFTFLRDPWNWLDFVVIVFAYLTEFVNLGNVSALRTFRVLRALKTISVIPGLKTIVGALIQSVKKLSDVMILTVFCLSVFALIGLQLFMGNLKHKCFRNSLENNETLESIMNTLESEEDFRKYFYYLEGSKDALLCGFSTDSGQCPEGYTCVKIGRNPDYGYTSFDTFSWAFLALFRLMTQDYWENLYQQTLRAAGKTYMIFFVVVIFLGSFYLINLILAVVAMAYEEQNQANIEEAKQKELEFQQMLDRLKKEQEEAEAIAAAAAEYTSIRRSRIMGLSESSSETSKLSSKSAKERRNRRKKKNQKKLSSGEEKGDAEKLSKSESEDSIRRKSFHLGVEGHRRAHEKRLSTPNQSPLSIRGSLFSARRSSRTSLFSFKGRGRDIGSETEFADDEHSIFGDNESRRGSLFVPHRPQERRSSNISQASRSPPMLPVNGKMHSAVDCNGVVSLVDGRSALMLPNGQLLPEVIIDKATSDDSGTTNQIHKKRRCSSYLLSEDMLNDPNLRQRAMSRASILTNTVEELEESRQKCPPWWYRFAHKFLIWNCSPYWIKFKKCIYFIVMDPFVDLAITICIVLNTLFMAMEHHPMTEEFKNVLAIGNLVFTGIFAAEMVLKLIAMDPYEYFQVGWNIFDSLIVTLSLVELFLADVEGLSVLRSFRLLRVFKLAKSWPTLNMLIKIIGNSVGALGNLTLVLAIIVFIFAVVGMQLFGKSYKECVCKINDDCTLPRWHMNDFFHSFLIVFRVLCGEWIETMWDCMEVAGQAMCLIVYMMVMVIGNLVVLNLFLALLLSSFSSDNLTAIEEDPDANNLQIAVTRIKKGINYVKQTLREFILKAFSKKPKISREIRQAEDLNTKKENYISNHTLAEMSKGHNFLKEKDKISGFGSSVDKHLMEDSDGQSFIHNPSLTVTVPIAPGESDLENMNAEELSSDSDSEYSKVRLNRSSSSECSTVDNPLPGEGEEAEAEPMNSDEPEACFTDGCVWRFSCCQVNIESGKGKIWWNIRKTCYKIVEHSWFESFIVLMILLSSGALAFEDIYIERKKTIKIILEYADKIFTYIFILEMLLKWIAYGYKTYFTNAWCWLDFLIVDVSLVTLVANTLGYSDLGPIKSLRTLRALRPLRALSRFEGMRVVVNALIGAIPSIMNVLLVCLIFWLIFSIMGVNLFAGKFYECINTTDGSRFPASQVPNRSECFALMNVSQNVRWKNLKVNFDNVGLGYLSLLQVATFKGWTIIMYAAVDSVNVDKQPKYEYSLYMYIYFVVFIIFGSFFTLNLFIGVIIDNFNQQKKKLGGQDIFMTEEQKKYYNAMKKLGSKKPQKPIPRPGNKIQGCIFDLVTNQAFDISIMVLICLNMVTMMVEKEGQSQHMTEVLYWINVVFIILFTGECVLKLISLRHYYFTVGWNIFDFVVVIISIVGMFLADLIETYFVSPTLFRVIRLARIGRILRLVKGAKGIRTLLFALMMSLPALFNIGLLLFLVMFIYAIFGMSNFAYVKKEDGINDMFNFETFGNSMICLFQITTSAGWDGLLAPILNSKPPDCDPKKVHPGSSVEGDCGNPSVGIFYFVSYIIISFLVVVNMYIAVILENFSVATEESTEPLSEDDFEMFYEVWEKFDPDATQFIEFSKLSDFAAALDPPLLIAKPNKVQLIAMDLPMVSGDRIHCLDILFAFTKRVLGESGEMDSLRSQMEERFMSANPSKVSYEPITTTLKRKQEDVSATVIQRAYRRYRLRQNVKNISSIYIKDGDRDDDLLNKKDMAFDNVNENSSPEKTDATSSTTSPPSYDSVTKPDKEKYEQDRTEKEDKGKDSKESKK

COCCOC(=O)C1=C(C)NC(C)=C(C(=O)OC/C=C/c2ccccc2)C1c1cccc([N+](=O)[O-])c1 (stereo not shown) [Cilnidipine, cilnidipine]
time to achieve maximal plasma concentrations (Tmax) [1]: ≤ 2 h
fraction unbound at 4 h, 10 μM ([2]; brain homogenate): 0.008
recovery at 4 h, 10 μM [2]: 93.7 ± 3.25%
stability in brain [3]: stable
binding to brain ([3]; male, Sprague-Dawley, rat, 4 h, 10 μM, pH 7.4): 99.2%
Unbound (%) ([3]; male, Sprague-Dawley, rat, brain homogenate, 4 h, 10 μM, pH 7.4): 0.8 ± 0.03%
Efficacy seen: overall response [4]: shows best overall
protein bound (protein binding in plasma) when given orally [5]: 98%
binding to plasma ([6]; male, Sprague-Dawley, 4 h, 10 μM, pH 7.4): 100%
Protein Binding (%) [6, 11]: 100.0 ± 0.00%
Unbound (%) [6, 11]: 0.0 ± 0.00%
stability in plasma ([6]; plasma): stable
recovery at 4 h, 10 μM [7]: 92.9 ± 4.69%
CL/F, Mean [8]: 304.7 L/h
inhibition of Nav 1.7 compared to an 1800 mg dose of gabapentin [9]: > 6 fold
Average Pain Score, Change From Baseline, Mean ([10]; Cilnidipine 10 mg (n = 4)): 0.47
Average Pain Score, Percent Change from Baseline, Mean ([10]; Cilnidipine 10 mg (n = 4)): 11.76%
Average Pain Score [Mean (SD)] ([10]; Cilnidipine 10 mg (n = 4)): 2.82 (2.268)
Average Pain Score [Mean (SD)] ([10]; Cilnidipine 20 mg (n = 3)): 1.28 (1.993)
Average Pain Score, Change From Baseline, Mean ([10]; Cilnidipine (20 mg) (n = 3)): −0.47
Average Pain Score, Percent Change from Baseline, Mean ([10]; Cilnidipine (20 mg) (n = 3)): −26.89%
Average Raynaud's Pain ([10]; Cilnidipine (20 mg) (n = 3)): 12%
Mean pain level at baseline ([10]; Cilnidipine (20 mg) (n = 3)): 2.3
Mean percent change in pain score from baseline ([10]; Cilnidipine (20 mg) (n = 3)): −11.8%
Average Raynaud's Pain ([10]; Pooled Cilnidipine (n = 7)): −27%

CN1CC(=O)N2[C@H](c3ccc4c(c3)OCO4)c3[nH]c4ccccc4c3C[C@@H]2C1=O [Tadalafil, tadalafil]
Average Pain Score, Change From Baseline, Mean ([10]; Tadalafil 5 mg (n = 4)): 0.37
Average Pain Score, Percent Change from Baseline, Mean ([10]; Tadalafil 5 mg (n = 4)): 17.20%
Average Pain Score [Mean (SD)] ([10]; Tadalafil 5 mg (n = 4)): 5.84 (4.768)
